# Target: human NaV subtype, like NaV 1.7 (Homo sapiens, UniProt Q15858)
# Test: E-VIPR optical membrane potential assay with electrical stimulation
# Format: cell-based
# Conditions: active against one or more sodium channels; Table 3 does not name the assay or NaV subtype; read-out: Binned Activity Data (IC50)
# Chain of human NaV subtype, like NaV 1.7 (Q15858 whole entry): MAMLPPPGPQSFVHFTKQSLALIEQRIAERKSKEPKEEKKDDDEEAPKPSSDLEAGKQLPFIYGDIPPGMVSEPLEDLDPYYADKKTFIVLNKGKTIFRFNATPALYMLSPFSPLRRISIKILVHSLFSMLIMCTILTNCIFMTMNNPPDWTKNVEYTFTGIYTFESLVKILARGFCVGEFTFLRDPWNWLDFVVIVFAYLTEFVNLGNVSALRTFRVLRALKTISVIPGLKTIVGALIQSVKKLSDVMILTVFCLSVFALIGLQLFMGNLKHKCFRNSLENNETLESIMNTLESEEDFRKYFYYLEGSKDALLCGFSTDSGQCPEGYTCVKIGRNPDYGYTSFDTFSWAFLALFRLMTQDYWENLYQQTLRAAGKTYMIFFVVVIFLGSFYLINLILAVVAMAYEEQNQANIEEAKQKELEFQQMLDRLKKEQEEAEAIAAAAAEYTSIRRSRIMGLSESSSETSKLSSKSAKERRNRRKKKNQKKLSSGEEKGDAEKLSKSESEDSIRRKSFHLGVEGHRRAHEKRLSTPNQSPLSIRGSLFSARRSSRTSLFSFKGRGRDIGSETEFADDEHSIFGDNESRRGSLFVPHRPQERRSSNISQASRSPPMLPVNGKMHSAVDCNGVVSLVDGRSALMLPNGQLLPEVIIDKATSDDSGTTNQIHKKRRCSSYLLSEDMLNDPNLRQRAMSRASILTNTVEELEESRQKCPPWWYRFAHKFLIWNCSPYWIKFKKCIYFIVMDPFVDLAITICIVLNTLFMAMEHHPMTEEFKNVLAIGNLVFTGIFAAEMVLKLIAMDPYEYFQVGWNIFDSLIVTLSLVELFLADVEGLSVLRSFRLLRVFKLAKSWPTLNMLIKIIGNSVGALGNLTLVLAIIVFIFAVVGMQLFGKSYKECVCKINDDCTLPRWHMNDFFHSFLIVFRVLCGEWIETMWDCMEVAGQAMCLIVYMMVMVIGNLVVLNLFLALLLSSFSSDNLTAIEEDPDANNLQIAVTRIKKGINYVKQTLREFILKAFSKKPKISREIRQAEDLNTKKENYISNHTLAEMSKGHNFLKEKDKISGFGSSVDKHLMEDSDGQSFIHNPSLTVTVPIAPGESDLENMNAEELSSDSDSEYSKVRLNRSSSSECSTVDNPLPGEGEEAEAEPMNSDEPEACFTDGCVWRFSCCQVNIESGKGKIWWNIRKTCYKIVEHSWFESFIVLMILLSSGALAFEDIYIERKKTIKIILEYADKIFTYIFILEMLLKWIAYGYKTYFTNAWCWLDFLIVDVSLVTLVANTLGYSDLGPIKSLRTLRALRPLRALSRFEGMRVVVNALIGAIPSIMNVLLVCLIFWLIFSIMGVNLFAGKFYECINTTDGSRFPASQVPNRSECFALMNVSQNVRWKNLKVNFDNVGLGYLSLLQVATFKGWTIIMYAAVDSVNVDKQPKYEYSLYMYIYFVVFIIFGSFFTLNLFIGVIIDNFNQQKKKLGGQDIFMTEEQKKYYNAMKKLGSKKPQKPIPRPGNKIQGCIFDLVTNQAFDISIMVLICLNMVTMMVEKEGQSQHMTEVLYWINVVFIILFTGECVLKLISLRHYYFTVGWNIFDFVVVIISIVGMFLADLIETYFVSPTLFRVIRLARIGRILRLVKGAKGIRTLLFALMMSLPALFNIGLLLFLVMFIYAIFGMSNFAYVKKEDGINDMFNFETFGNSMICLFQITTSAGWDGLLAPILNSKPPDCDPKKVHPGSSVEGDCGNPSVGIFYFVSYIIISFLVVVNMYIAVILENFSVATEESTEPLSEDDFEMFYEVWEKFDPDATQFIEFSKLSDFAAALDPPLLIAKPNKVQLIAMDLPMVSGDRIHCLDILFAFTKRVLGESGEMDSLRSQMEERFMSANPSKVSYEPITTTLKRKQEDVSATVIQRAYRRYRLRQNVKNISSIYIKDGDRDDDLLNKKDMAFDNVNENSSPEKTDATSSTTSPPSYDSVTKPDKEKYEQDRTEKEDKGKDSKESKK
row,Compound,IC50 [nM]
1,CC(C)c1ccc(C(=O)N2CCC3(CC2)c2ccc(Cl)n2CCN3C)cc1 [Compound 221],> 5000
2,COc1cc(C(=O)N2CCC3(CC2)c2ccc(C(F)(F)F)n2CC(C)N3C)ccc1OC(C)C (stereo not drawn) [Compound 149],≤ 2000
3,CC(=O)c1ccc2n1CCN(C)C21CCN(C(=O)c2ccc(C(OCC(F)(F)F)OCC(F)(F)F)c(Cl)c2)CC1 [Compound 739],> 5000
4,CCCCOc1ccc(C(=O)N2CCC3(CC2)c2ccc(Cl)n2CCN3C)cc1OC [Compound 65],≤ 2000
5,CN1CCn2c(C(F)(F)F)cc(Cl)c2C12CCN(C(=O)c1ccc(C3(O)CCC3)cc1)CC2 [Compound 228],≤ 2000
6,COCCOc1ccc(C(=O)N2CCC3(CC2)c2c(F)cc(C(F)(F)F)n2CCN3C)cc1 [Compound 736],≤ 2000
7,CCCCOc1ccc(C(=O)N2CCC3(CC2)c2ccc(C(C)=O)n2CCN3C)cc1OC [Compound 699],≤ 2000
8,COc1ccc(C(=O)N2CCC3(CC2)NC(C)(C)Cn2c(C(=O)C(F)(F)F)ccc23)c(C)c1 [Compound 738],≤ 2000
9,CC(C)Oc1ccc(C(=O)N2CCC3(CC2)N[C@@H](C)Cn2c(C(F)(F)F)ccc23)cc1F [Compound 108],2000 to 5000
10,COc1cc(C(=O)N2CCC3(CC2)NCCn2c(C(F)(F)F)ccc23)ccc1OC(C)(C)C [Compound 435],2000 to 5000
11,COc1cc(C(=O)N2CCC3(CC2)N[C@H](C)Cn2c(C(F)(F)F)ccc23)ccc1OC(C)C [Compound 179],2000 to 5000
12,COc1cc(C(=O)N2CC[C@@]3(c4ccc(C(F)(F)F)n4CCN3C)[C@@H](C)C2)ccc1OC(C)C [Compound 429],2000 to 5000
13,COc1cc(C(=O)N2CCC3(CC2)NCCn2c(C(F)(F)F)ccc23)ccc1O [Compound 594],> 5000
14,Cc1cc(C(=O)N2CCC3(CC2)c2ccc(C(=O)C(C)(C)C)n2CCN3C)ccc1C(C)(C)O [Compound 523],≤ 2000
15,CC(=O)c1ccc2n1CC(C)(C)NC21CCN(C(=O)c2ccc(C3CCCCC3)cc2)CC1 [Compound 643],≤ 2000
16,CC[C@H](C)Oc1ccc(C(=O)N2CCC3(CC2)c2ccc(Cl)n2CCN3C)cc1OC [Compound 38],2000 to 5000
17,CCc1ccc(C(=O)N2CCC3(CC2)c2ccc(Cl)n2CCN3C)cc1OC [Compound 512],2000 to 5000
18,CC(C)CCOc1ccc(C(=O)N2CCC3(CC2)NCC(C)n2c(C(=O)C(F)(F)F)ccc23)cc1 (stereo not drawn) [Compound 284],≤ 2000

row,Compound,IC50 [nM]
1,CCc1ccc(C(=O)N2CCC3(CC2)c2ccc(C(C)=O)n2CCN3C)cc1OC [Compound 382],2000 to 5000
2,COCC#Cc1ccc(C(=O)N2CCC3(CC2)c2ccc(Cl)n2CCN3C)cc1F [Compound 36],> 5000
3,COCCN1CCn2c(C(F)(F)F)ccc2C12CCN(C(=O)c1ccc(C(C)(C)O)cc1)CC2 [Compound 701],≤ 2000
4,CC(=O)c1ccc2n1CCN(C)C21CCN(C(=O)c2ccc(OC(C)C)c(F)c2)CC1 [Compound 734],> 5000
5,COc1cc(C(=O)N2CCC3(CC2)NC(C)(C)Cn2cc(C(C)=O)cc23)ccc1C(C)(C)C [Compound 364],> 5000
6,COc1cccc(C(=O)N2CCC3(CC2)c2ccc(C(F)(F)F)n2CCN3C)c1 [Compound 42],> 5000
7,CC(C)Nc1ccnc2c(C(=O)N3CCC4(CC3)c3ccc(C(F)(F)F)n3CCN4C)cnn12 [Compound 162],≤ 2000
8,CC(C)Oc1ccc(C(=O)N2CCC3(CC2)c2ccc(Cl)n2CCN3C)cc1C#N [Compound 220],2000 to 5000
9,Cc1cc(C(=O)N2CCC3(CC2)c2c(C#N)cc(C(F)(F)F)n2CCN3C)ccc1C(C)(C)O [Compound 120],2000 to 5000
10,CC(C)Oc1ccc(C(=O)N2CCC3(CC2)NC(C)(C)Cn2c(C(F)(F)F)ccc23)cc1Cl [Compound 37],≤ 2000
11,COc1ccc(C(=O)N2CCC3(CC2)NC(C)(C)Cn2c(C(=O)C(F)(F)F)ccc23)cc1C [Compound 612],≤ 2000
12,COc1cc(C(=O)N2CCC3(CC2)NCCn2c(C(F)(F)F)ccc23)ccc1OC(C)C [Compound 372],≤ 2000
13,CC(C)CCOc1ccc(C(=O)N2CCC3(CC2)NCC(C)n2c(C(=O)C(F)(F)F)ccc23)nc1 (stereo not drawn) [Compound 611],≤ 2000
14,CCOc1ncccc1C(=O)N1CCC2(CC1)c1ccc(C(F)(F)F)n1CCN2C [Compound 297],≤ 2000
15,CN1CCn2c(C(F)(F)F)cc(F)c2C12CCN(C(=O)c1ccc(C3(O)CCC3)cc1)CC2 [Compound 242],≤ 2000
16,COc1cc(C(=O)N2CC[C@@]3(C[C@@H]2C)c2ccc(C(F)(F)F)n2CCN3C)ccc1OC(C)C [Compound 614],> 5000
17,COc1cc(C(=O)N2CCC3(CC2)c2ccc(C(F)(F)F)n2CCN3C)ccc1OCCOC(F)(F)F [Compound 168],≤ 2000
18,CC(C)Oc1ccc(C(=O)N2CCC3(CC2)NCC(C)(C)n2c(C(F)(F)F)ccc23)cc1Cl [Compound 77],≤ 2000

# The next lines start with the values.
row,IC50 [nM],Compound
1,> 5000,COc1ncccc1-c1ccc(C(=O)N2CCC3(CC2)c2ccc(C(=O)C(F)(F)F)n2CCN3C)cc1C [Compound 514]
2,≤ 2000,Cc1cc(C(=O)N2CCC3(CC2)c2ccc(C(=O)C(F)(F)F)n2CCN3C)ccc1C(C)(C)O [Compound 266]
3,≤ 2000,CN1CCn2c(C(=O)C(F)(F)F)ccc2C12CCN(C(=O)c1ccc(-c3ccccc3)c(F)c1)CC2 [Compound 717]
4,2000 to 5000,CN1CCn2c(C(F)(F)F)cc(F)c2C12CCN(C(=O)c1ccc(C3CC3)cc1)CC2 [Compound 184]
5,2000 to 5000,COCCOc1ccc(C(=O)N2CCC3(CC2)c2ccc(C(=O)C(F)(F)F)n2CCN3C)cc1OC [Compound 640]
6,≤ 2000,COc1ccc(C(=O)N2CCC3(CC2)c2ccc(C(=O)C4CC4)n2CCN3C)cc1C(F)(F)F [Compound 132]
7,> 5000,CN1CCn2c(C(=O)C(F)(F)F)ccc2C12CCN(C(=O)c1cc(O)ccc1F)CC2 [Compound 417]
8,≤ 2000,CN1CCn2c(C(F)(F)F)ccc2C12CCN(C(=O)c1ccc(S(=O)(=O)NC3CC3)cc1)CC2 [Compound 584]
9,≤ 2000,CN1CCn2c(C(=O)C(F)(F)F)ccc2C12CCN(C(=O)c1ccc(OCC(C)(C)C)cc1)CC2 [Compound 494]
10,≤ 2000,CC1CCN(S(=O)(=O)c2ccc(C(=O)N3CCC4(CC3)c3ccc(C(=O)C(F)(F)F)n3CCN4C)cc2)CC1 [Compound 600]
11,≤ 2000,CN1CCn2c(C(F)(F)F)cc(F)c2C12CCN(C(=O)c1ccc(S(=O)(=O)C(F)F)cc1)CC2 [Compound 23]
12,≤ 2000,Cc1cc(C(=O)N2CCC3(CC2)c2ccc(C(=O)C4(C)CC4)n2CCN3C)ccc1O [Compound 161]
13,≤ 2000,CC(C)S(=O)(=O)c1ccc(C(=O)N2CCC3(CC2)c2ccc(C(=O)C(F)(F)F)n2C[C@H](C)N3C)cc1 [Compound 500]
14,≤ 2000,CN1CCn2c(C(=O)C(F)(F)F)ccc2C12CCN(C(=O)c1ccc(OC3CCOCC3)cc1)CC2 [Compound 645]
15,≤ 2000,CN1CCn2c(C(=O)C(F)(F)F)ccc2C12CCN(C(=O)c1ccc(OC(C)(C)C)cc1)CC2 [Compound 6]
16,≤ 2000,Cc1cc(C(=O)N2CCC3(CC2)c2ccc(C(=O)C(F)(F)F)n2CCN3C)ccc1OCCCO [Compound 148]
17,2000 to 5000,COc1ccc(C(=O)N2CCC3(CC2)c2ccc(C(=O)C(F)(F)F)n2C[C@@H](C)N3C)cc1C [Compound 432]
18,≤ 2000,CN1CCn2c(C(F)(F)F)ccc2C12CCN(C(=O)c1ccc(CC(C)(C)O)cc1)CC2 [Compound 499]

# — patent US8916565B2, “Pyrrolopyrazine-spirocyclic piperidine amides as modulators of ion channels” (priority 2011, dated 2014)
